Publication PMC11009648, “Development of an orally bioavailable mSWI/SNF ATPase degrader and acquired mechanisms of resistance in prostate cancer” (Proceedings of the National Academy of Sciences of the …, 2024)
Each block holds one molecule with its values, some of them ahead of it.

Assays:
[1] = tested on: 22Rv1-wild type (WT) cells; experiment: CellTiter-Glo cell viability assay in 22Rv1 wild type cells; format: cell-based, human; details: 22Rv1 WT
Protocol: (§1) Cells were seeded onto 96-well plates in appropriate culture media and allowed to adhere overnight prior to treatment. The next day, a nine-point serial dilution of the compounds was prepared and added to the plates. After treatment, the cells were then incubated for an additional 5 d. On the last day of treatment, the CellTiter-Glo cell viability assay (Promega) was then executed in accordance with the manufacturer’s guidelines. The signal (luminescence) from each well was determined using an Infinite M1000 Pro plate reader (Tecan). Relative viability was determined by dividing the signal from each well by the average of the control condition in each experiment. Finally, the data were analyzed and plotted using GraphPad Prism.

22Rv1 AUR-3 cells = experiment: CellTiter-Glo cell viability assay in AU-15330-resistant 22Rv1 AUR-3 cells (ABCB1 overexpression); format: cell-based, human; details: for IC50: 22Rv1 AUR-3
Excerpt: (§2) The rising importance of the mSWI/SNF complex as a therapeutic target and the success ([32], [33]) of developing next-generation PROTAC degraders targeting the mSWI/SNF complex prompted us to proactively study potential resistance mechanisms that cancer cells may develop in response to this class of compounds. To achieve this, we cultured 22Rv1 cells in either DMSO or a lethal dose of AU-15330 for 1 mo, refreshing the drug twice a week, until resistant cells emerged. Upon obtaining a population of resistant cells, we unbiasedly characterized the genomic and transcriptomic alterations using whole-exome sequencing and bulk RNA sequencing (RNA-seq), respectively (Fig. 3A).
as §1

[2] = tested on: SMARCA4, SMARCA2 and PBRM1 in 22Rv1 AUR-2 cells; experiment: Immunoblot of target degradation in 22Rv1 AUR-2 cells; format: cell-based, human; details: 4 h, AU-15330 1 µM, AU-24118 0.1 µM
Protocol: (§3) Lysates were prepared using radioimmunoprecipitation assay buffer (Thermo Fisher) with cOmpleteTM protease inhibitor cocktail tablets (Sigma-Aldrich) added. Total protein for each sample was determined using the DC Protein Assay (Bio-Rad) according to the manufacturer’s instructions. A standardized quantity of protein was resolved using NuPAGE Tris-Acetate Protein Gel (3 to 8%) (Thermo Fisher) or NuPAGE Bis-Tris Protein Gel (4 to 12%) (Thermo Fisher) and probed with primary antibodies as indicated. Following incubation with secondary antibodies conjugated with horseradish peroxidase, membranes were imaged on an Odyssey Fc Imager (LiCOR Biosciences).

[3] = tested on: SMARCA4, PBRM1 and SMARCA2 in 22Rv1-AUR-3 xenografts; experiment: 22Rv1-AUR-3 xenograft pharmacodynamics study; details: 5 d; AU-15330 60 mg/kg retro-orbital; zosuquidar 10, 20 or 40 mg/kg i.p.
Protocol: as §3
For the 22Rv1-AUR-3 model, bilateral subcutaneous dorsal flank tumors were established by injecting 1 × 10^6 cells suspended in a 1:1 mixture of serum-free medium and Matrigel (BD Biosciences). Once tumors reached an average volume of 100 mm^3, mice were randomized and treated with either 60 mg/kg AU-15330 by retro-orbital vein injection 3 times every other day and with or without 10 mg/kg, 20 mg/kg, or 40 mg/kg of zosuquidar by intraperitoneal injection daily for 5 d per week. […] Animals harboring tumors approaching that size were immediately killed. All in vivo studies were approved by the U-M IACUC.

[4] = tested on: mutant forms of SMARCA4 in HEK293 cells; experiment: Immunoblot of overexpressed flag-tagged mutant SMARCA4 in HEK293 cells; format: cell-based, human; details: 24 h treatment
Excerpt: GFP-SMARCA4 (Addgene, 65391) was used for the SMARCA4 mutation clone. The pLVX-TetOne-Puro-hAXL (Addgene, 124797) backbone was used as a starting point prior to undergoing a series of modifications. The endogenous target gene was removed, and a multiple cloning site (MCS) was inserted downstream of the endogenous promoter. Custom gblocks containing Flag-tagged WT SMARCA4 were synthesized (Integrated DNA Technologies, IDT) and inserted into the MCS. Subsequently, custom gblocks containing SMARCA4-N1540S, SMARCA4-I1551del, or SMARCA4-F1485S were inserted to replace the respective portion of WT SMARCA4. Finally, the TRE3G promoter was replaced with hPGK.
HEK293 cells were seeded overnight and transfected with Lipofectamine 3,000 (Thermo Fisher) according to the manufacturer’s protocol. Media were changed 8 h post transfection and incubated for 48 h prior to conducting further analyses.

22Rv1 AUR-2 cells = experiment: CellTiter-Glo cell viability assay in AU-15330-resistant 22Rv1 AUR-2 cells (SMARCA4 mutation); format: cell-based, human; details: dose-response (Fig. S4C)
Excerpt: as §2
as §1, with “On the last day of treatment, the CellTiter-Glo cell viability assay (Promega) was then executed in accordance with the manufacturer’s guidelines.” left out

[5] = tested on: VCaP castration-resistant tumor model; set-up: method as in PMID 34937944; details: VCaP CRPC model, AU-15330 60 mg/kg; not an arm of this study; cited from earlier work
[6] = tested on: VCaP castration-resistant tumor model; experiment: CRPC-VCaP xenograft efficacy study; format: in vivo; details: castrated CB17 SCID mice; enzalutamide 10 mg/kg oral gavage five times weekly; AU-24118 15 mg/kg oral gavage three times weekly
Protocol: Six-week-old CB17 (male) SCID mice were obtained from the breeding colony at the U-M. For all studies, tumors were measured two or three times per week using digital calipers, and tumor volumes were calculated using the formula (π/6) (L × W2), where L is length and W is width of the tumor. At study endpoint, mice were killed, and tumors were extracted and weighed. […] Once tumors grew to a palpable size (~400 mm^3), the mice were physically castrated. Once those tumors regained their precastration size, mice were then randomized and treated with either 15 mg/kg AU-24118 or vehicle by oral gavage 3 d per week with or without enzalutamide (10 mg/kg) by oral gavage 5 d per week for 4 wk.
IHC was performed on 4 µm formalin-fixed, paraffin-embedded tissue sections using BRG1 (SMARCA4), AR, FOXA1, ERG and C-Myc. The IHC process was performed on the Ventana ULTRA automated slide staining system using the Omnimap and Ultraview Universal DAB detection kit. The antibody details are provided in SI Appendix, Table S1. The following commercial kits from Roche-Ventana Medical System were used: Discovery CC1 (Cat No. 950-500), Discovery CC2 (Cat No. 950-123), OptiView Universal DAB Detection Kit (Cat No. 760-700), and OmniMap Universal DAB Detection Kit (Cat No. 760-149).
The TUNEL and In Situ Cell Death Detection Kits (TMR Red #12156792910; Roche Applied Science) were used to examine apoptosis, following the manufacturer’s instructions. Briefly, fixed sections were permeabilized with Triton X-100 and then washed in phosphate-buffered saline. Labeling was carried out at 37 °C for 60 min by addition of a reaction buffer that contained enzymes. A Zeiss Axiolmager M1 microscope was used to obtain images.

[7] = Fig. 4G/H, 5 d, without zosuquidar
[8] = Homo sapiens, 22Rv1, 120 h, Fig. 4G/H, 5 d, without zosuquidar
[9] = Homo sapiens, 22Rv1, Fig. S6A, siABCB1
[10] = Homo sapiens, 22Rv1, Fig. S6A, siNT (negative control)

IC50 [1, 7]: 800 nM | IC50 (22Rv1 AUR-3 cells; [7]): > 30 µM
SMILES: Cc1cc([C@H](C(=O)N2C[C@H](O)C[C@H]2C(=O)N[C@@H](CC(=O)N2CCC(N3CCC(C#Cc4ccc(C(=O)NC5C(C)(C)C(Oc6ccc(C#N)c(Cl)c6)C5(C)C)cc4)CC3)CC2)c2ccc(-c3scnc3C)cc2)C(C)C)on1 (stereo partly drawn) [ARD-61, reference compound]
sensitivity of AUR-3 cells versus WT (22Rv1 AUR-3 cells; 22Rv1 AUR-3 cells (Fig. S5 E and F)): dramatically less sensitive

IC50 [1, 8]: 2.3 nM | IC50 ([1]; Homo sapiens, 22Rv1, Fig. S5F): 40.7 nM | IC50 [1, 9]: 48.9 nM | IC50 [1, 10]: 45.5 nM | IC50 (22Rv1 AUR-3 cells; [8]): 28.5 µM | IC50 (22Rv1 AUR-3 cells; Homo sapiens, 22Rv1, Fig. S5F): 20.5 µM | IC50 (22Rv1 AUR-3 cells; [9]): 0.99 µM | IC50 (22Rv1 AUR-3 cells; [10]): > 30 µM
SMILES: Cc1ncsc1-c1ccc([C@H](C)NC(=O)[C@@H]2C[C@@H](O)CN2C(=O)[C@@H](NC(=O)CN2CCN(c3cc(-c4ccccc4O)nnc3N)CC2)C(C)(C)C)cc1 [AU-15330]
degradation of SMARCA2 and PBRM1, immunoblot [2]: able to degrade SMARCA2 and PBRM1 | degradation of SMARCA4, immunoblot [2]: unable to degrade SMARCA4 | degradation of target proteins in tumors, immunoblot [3]: unable to degrade any of its target proteins alone | degradation of overexpressed mutant SMARCA4, immunoblot [4]: resistant to degradation | ability to cause a decrease in cell viability (22Rv1 AUR-2 cells): unable | tumor response as a single agent [5]: more modest effects as a single agent

SMILES: CNC(=O)c1ccc(N2C(=S)N(c3ccc(C#N)c(C(F)(F)F)c3)C(=O)C2(C)C)cc1F [Enzalutamide, enzalutamide, reference compound]
tumor response [6]: moderate tumor growth inhibition
